Measured values taken from EP4299131A1, “HYDROPHILIC PHENALENONES AND THEIR USE IN ANTIMICROBIAL PHOTODYNAMIC THERAPY” (Centre national de la recherche scientifique, priority 2022, dated 2024).
Like-named read-outs stand apart in the source and are kept apart here.

Legend:
[1] = Singlet oxygen quantum yield by chemical trapping with ADPA; assay type: physicochemical; details: D2O (470 nm); ADPA as chemical probe, Eosin Y as reference
Protocol: Chemical trapping experiments: Quantum yields of singlet oxygen produced by 1a-c was evaluated by monitoring the UV/Visible absorption change in an Agilent 8453 Diode-Array spectrophotometer of 3,3'-anthracene-9,10-diyldipropanoic acid (ADPA) which is a well-known singlet oxygen trap. […] A solution of 1a-c in deuterated water (A473nm = 0.06) was prepared and an aliquot of ADPA in deuterated water was added to reach A378nm = 0.74. The photoabsorption spectral change of ADPA solution with photosensitizers 1a-c was monitored following the decrease of the band at 382 nm. Plots of Ln(A/A0) vs. time (s) give linear graphs for which the slope is the experimental kinetic rate constant (k, s^-1) (Ao is the initial absorption intensity and A is the absorption intensity at the time t). From comparison of experimental rate constants between phenalenone derivatives 1a-c and two selected actinometers (Eosin Y and Riboflavin, see supporting information for results using Riboflavin) using optically-matched solutions, singlet oxygen quantum yields of the photosensitizers ΦΔ can be determined from the following equation: φΔ = (k)/(kref) × φΔ,ref [formula]

[2] = Singlet oxygen quantum yield by 1O2 phosphorescence at 1270 nm; assay type: physicochemical; details: phosphorescence method
Protocol: Singlet oxygen quantum yield measurements: Lifetime decays of singlet oxygen, O2(^1Δg), were acquired with a FluoTime 200 equipped with multichannel scaler Nanoharp 200. […] For the detection at 1270 nm a NIR PMT H10330A (Hamamatsu) was employed. The O2(^1Δg) quantum yields (ΦΔ) were determined by comparing the intensity at zero time of the 1270 nm signals to those of optically-matched solutions of SAPYR or Eosin Y as references.

[3] = UV/Visible and fluorescence spectroscopy, fluorescence lifetime (TCSPC); assay type: physicochemical; details: for ΦF (fluorescence quantum yield): 6-ethoxyphenalenone as actinometer; for ε: at the longest-wavelength absorption maximum; for λmax(em): excited at 400 nm
Protocol: UV/Visible and fluorescence spectroscopy: UV-Vis spectra were recorded on an Agilent 8453 Diode-Array spectrophotometer in the range of 250-700 nm. Emission spectra were measured in an ISS PC1 spectrofluorometer at room temperature. Fluorescence quantum yields were determined using equation (1) and 6-ethoxy-phenalenone in methanol as reference. ΦF,sample = ΦF,reference (Areference)/(Asample)(Isample)/(Ireference)(((ηsample)/(ηreference)))^2 [formula] ΦF is the fluorescence quantum yields. A: is the absorbance in the wavelength of excitation, I correspond to area of the emission spectra and η is the refractive index of the solvent. The excitation wavelength was 400 nm for all steady state fluorescence experiments.
Luminescence lifetime measurements were carried out using a PicoQuant FluoTime 200 fluorescence lifetime spectrometer with a multichannel scaler (PicoQuant's Timeharp 250) with the time correlated single photon counting (TCSPC) method. As excitation resource laser 405 nm was employed.

[4] = system: Pseudomonas aeruginosa CIP76.110; assay: Antibacterial photodynamic inactivation, MIC/MBC by micromethod in 96-well plates; assay type: cell-based; details: for MBC / MIC: Pseudomonas aeruginosa
Protocol: (§1) To evaluate the biological activity of the molecules, the minimal inhibitory concentration (MIC) and the minimal bactericidal concentration (MBC) were determined on bacterial cultures (Staphylococcus aureus CIP76.25, Pseudomonas aeruginosa CIP76.110) by micromethod in 96-well plates. Briefly, bacterial cultures in log-phase were diluted in sterile PBS 1X at a concentration equivalent to 4×10^6 UFC/mL. Serial dilutions of different molecules were performed in PBS 1X to a final concentration from 200 to 1.5 µM and 50 µl of each dilution were added in the microplate wells. Then, 50 µl of diluted bacterial culture were added in each well. Two different plates for each strain were prepared: one plate for the dark condition and a second plate for light irradiation.
(§2) Two controls were included; a bacterial growth control with no molecule added and a negative control with PBS without bacterial inoculum and no molecules.
(§3) The microplate was incubated at 37°C for 1h in dark condition. After that, bacteria were irradiated with LED white light (total fluence: 25J/cm^2). During the time of irradiation, the second plate was maintained in the dark. Then, 100 µL of 2-fold concentrated TS broth were added in each well and the microplate was incubated at 37°C for 24h. The MIC values were determined as the lowest concentration without observed bacterial growth. For determination of the MBC, 100 µl from wells where no evident growth was observed were diluted in physiological water (NaCl 0.9%). All 10-fold serial dilutions were spread on TS agar plates using an automatic plater (easySPIRAL®, Interscience, Saint-Nom La Bretêche, France). After incubation at 37 °C for 24 h, colonies were counted to determine total CFU per mL (CFU/mL). The MBC corresponds to the concentration of the active compound for which 99.99% of the bacteria have been killed (i.e. 4 log reduction compared to the untreated control). Three independent experiments were performed with each strain.

[5] = system: Staphylococcus aureus CIP76.25; assay: as above; assay type: cell-based
Protocol: as §1, §2, §3

[6] = Photochemical stability under blue light monitored by 1H NMR; assay type: physicochemical; details: D2O, irradiation at 470 nm (3.5 mW.cm^-2) for 24h, under oxygen or Argon
Protocol: Photochemical stability: In an NMR tube, a solution of dyes 1a-c or SAPYR in D2O ([C] = 17.5 mmol/L) was irradiated at 470 nm (3.5 mW.cm^-2) under oxygen or Argon atmosphere (the gas was bublled solution was oxygenated or degassed by bubbling through the solution for 5 minutes and put under gas atmosphere). 1H NMR spectra were recorded after 24h irradiation time for each sample.

[7] = actinometer value of SAPYR, excitation at 355 nm, ref [27]; cited from earlier work
[8] = D2O (470 nm), Eosin Y as actinometer
[9] = D2O, SAPYR as actinometer, excitation at 355 nm
[10] = DMSO, SAPYR as actinometer, excitation at 355 nm
[11] = MeOH, SAPYR as actinometer, excitation at 355 nm
[12] = CIP76, light or radiation study, P.a, light (L), LED white light, total fluence 25 J/cm^2, read-out: MBC
[13] = CIP76, light or radiation study, P.a, light (L), LED white light, total fluence 25 J/cm^2, read-out: MIC
[14] = CIP76, P.a, dark (D), read-out: MBC
[15] = CIP76, P.a, dark (D), read-out: MIC
[16] = CIP76, S.a, dark (D), read-out: MBC
[17] = CIP76, S.a, dark (D), read-out: MIC
[18] = CIP76, light or radiation study, S.a, light (L), LED white light, total fluence 25 J/cm^2, read-out: MBC
[19] = CIP76, light or radiation study, S.a, light (L), LED white light, total fluence 25 J/cm^2, read-out: MIC
[20] = CIP76, light or radiation study

Row | SMILES | ΦΔ [1] | ΦΔ [2, 8] | ΦΔ [2, 9] | ΦΔ [2, 10] | ΦΔ [2, 11] | TF (singlet lifetime) ([3]; DMSO) [ns] | Δλ (Stokes shift) ([3]; DMSO) [nm] | λabs ([3]; DMSO) [nm] | ΦF (fluorescence quantum yield) ([3]; DMSO) | ε ([3]; DMSO) [M⁻¹ cm⁻¹] | λmax(em) ([3]; DMSO) [nm] | TF (singlet lifetime) ([3]; H2O) [ns] | Δλ (Stokes shift) ([3]; H2O) [nm] | λabs ([3]; H2O) [nm] | ΦF (fluorescence quantum yield) ([3]; H2O) | ε ([3]; H2O) [M⁻¹ cm⁻¹] | λmax(em) ([3]; H2O) [nm] | TF (singlet lifetime) ([3]; MeOH) [ns] | Δλ (Stokes shift) ([3]; MeOH) [nm] | λabs ([3]; MeOH) [nm] | also measured
1 | COc1ccc2c3c(cc(C[N+](C)(C)Cc4ccccc4)c(-c4ccccc4)c13)C(=O)C=C2.[Cl-] [1a, N-benzyl-1-(6-methoxy-1-oxo-7-phenyl-1H-phenalen-8-yl)-N,N-dimethylmethanaminium chloride] | 0.09 | 0.12 | 0.06 | 0.79 | 0.10 | 6.04 | 92 | 441 | 0.069 | 11426 | 533 | 7.65 | 90 | 459 | 0.241 | 9239 | 549 | 8.15 | 95 | 447 | ΦF (fluorescence quantum yield) ([3]; MeOH): 0.221; ε ([3]; MeOH): 9363 M⁻¹ cm⁻¹; λmax(em) ([3]; MeOH): 542 nm; MBC [4, 12]: > 200 µM; MIC [4, 13]: > 200 µM; MBC [4, 14]: > 200 µM; MIC [4, 15]: > 200 µM; MBC [5, 16]: > 200 µM; MIC [5, 17]: 167 µM; MBC [5, 18]: 133 µM; MIC [5, 19]: 50 µM
2 | COc1ccc2c3c(cc(C[n+]4ccccc4)c(-c4ccccc4)c13)C(=O)C=C2.[Cl-] [1b, 1-((6-methoxy-1-oxo-7-phenyl-1H-phenalen-8-yl)methyl)pyridin-1-ium chloride] | 0.15 | 0.11 | 0.06 | 0.63 | 0.12 | 6.24 | 91 | 444 | 0.067 | 10472 | 535 | 7.15 | 88 | 463 | 0.192 | 9259 | 551 | 7.65 | 95 | 447 | ΦF (fluorescence quantum yield) ([3]; MeOH): 0.209; ε ([3]; MeOH): 9344 M⁻¹ cm⁻¹; λmax(em) ([3]; MeOH): 542 nm; MBC [4, 12]: > 200 µM; MIC [4, 13]: > 200 µM; MBC [4, 14]: > 200 µM; MIC [4, 15]: > 200 µM; MBC [5, 16]: > 200 µM; MIC [5, 17]: > 200 µM; MBC [5, 18]: 67 µM; MIC [5, 19]: 50 µM
3 | COc1ccc2c3c(cc(CN(CCO)CCO)c(-c4ccccc4)c13)C(=O)C=C2.Cl [1c, 8-((bis(2-hydroxyethyl)amino)methyl)-6-methoxy-7-phenyl-1H-phenalen-1-one chloride] | 0.08 | 0.09 | 0.06 | 0.91 | 0.15 | 5.38 | 92 | 441 | 0.071 | 11984 | 533 | 7.39 | 92 | 459 | 0.217 | 10053 | 551 | 8.24 | 96 | 446 | ΦF (fluorescence quantum yield) ([3]; MeOH): 0.233; ε ([3]; MeOH): 12256 M⁻¹ cm⁻¹; λmax(em) ([3]; MeOH): 542 nm; MBC [4, 12]: 41.7 µM; MIC [4, 13]: 33 µM; MBC [4, 14]: > 200 µM; MIC [4, 15]: > 200 µM; MBC [5, 16]: > 200 µM; MIC [5, 17]: > 200 µM; MBC [5, 18]: 41.7 µM; MIC [5, 19]: 41.7 µM
4 | O=C1C(C[n+]2ccccc2)=Cc2cccc3cccc1c23 [SAPYR, reference compound] | – | – | – | – | – | – | – | – | – | – | – | – | – | – | – | – | – | – | – | – | photochemical stability [6]: complete decomposition; ΦΔ [7]: 1.02; MBC [4, 20]: > 200 µM; MIC [4, 20]: > 200 µM; photodynamic effects ([4]; illumination under white light): did not exhibit any photodynamic effects; MBC [5, 20]: 167 µM; MIC [5, 20]: 83.3 µM
